Among the data in paper PMC6199309, “A therapeutic approach to pantothenate kinase associated neurodegeneration” (Nature Communications, 2018) are remaining binding values, retold here.

In this experiment the target is T1, NEK6 (Homo sapiens, UniProt Q9HC98).
T1 construct: purchased DiscoverX KINOMEscan
As to the kind of experiment: KINOMEscan. In kind it is binding. The note with it: read-out: %Ctrl @ 10000nM.

T1 sequence (Q9HC98 whole entry): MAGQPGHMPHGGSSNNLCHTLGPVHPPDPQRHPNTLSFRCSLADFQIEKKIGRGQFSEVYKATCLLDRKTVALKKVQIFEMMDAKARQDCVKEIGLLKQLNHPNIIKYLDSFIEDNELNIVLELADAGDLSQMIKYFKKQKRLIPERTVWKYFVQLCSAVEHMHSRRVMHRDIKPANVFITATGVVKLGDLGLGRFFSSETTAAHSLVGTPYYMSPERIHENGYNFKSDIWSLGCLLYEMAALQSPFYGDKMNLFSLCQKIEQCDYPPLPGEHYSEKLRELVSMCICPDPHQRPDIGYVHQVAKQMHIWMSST

On to `CC(C)c1ccc(CC(=O)N2CCN(c3ccc(C#N)nn3)CC2)cc1` [PZ-2891, 6-(4-(2-(4-isopropylphenyl)acetyl)piperazin-1-yl)pyridazine-3-carbonitrile], for which the remaining binding at 10 µM was 91%.
